According to ChEMBL document CHEMBL1268939, “Synthesis and evaluation of bivalent, peptidomimetic antagonists of the αvβ3 integrins” (Bioorg Med Chem Lett, 2010):
pIC50: −log10 of the molar value.

What follows are compounds tested against Integrin alpha-V/beta-3 (Homo sapiens, UniProt P05106+P06756) (assay: Inhibition of biotinylated vitronectin binding to human alphaVbeta3 integrin after 3 hrs by ELISA).
Type: protein-complex assay

Integrin alpha-V/beta-3, sequence (P05106 27-788 limits assumed): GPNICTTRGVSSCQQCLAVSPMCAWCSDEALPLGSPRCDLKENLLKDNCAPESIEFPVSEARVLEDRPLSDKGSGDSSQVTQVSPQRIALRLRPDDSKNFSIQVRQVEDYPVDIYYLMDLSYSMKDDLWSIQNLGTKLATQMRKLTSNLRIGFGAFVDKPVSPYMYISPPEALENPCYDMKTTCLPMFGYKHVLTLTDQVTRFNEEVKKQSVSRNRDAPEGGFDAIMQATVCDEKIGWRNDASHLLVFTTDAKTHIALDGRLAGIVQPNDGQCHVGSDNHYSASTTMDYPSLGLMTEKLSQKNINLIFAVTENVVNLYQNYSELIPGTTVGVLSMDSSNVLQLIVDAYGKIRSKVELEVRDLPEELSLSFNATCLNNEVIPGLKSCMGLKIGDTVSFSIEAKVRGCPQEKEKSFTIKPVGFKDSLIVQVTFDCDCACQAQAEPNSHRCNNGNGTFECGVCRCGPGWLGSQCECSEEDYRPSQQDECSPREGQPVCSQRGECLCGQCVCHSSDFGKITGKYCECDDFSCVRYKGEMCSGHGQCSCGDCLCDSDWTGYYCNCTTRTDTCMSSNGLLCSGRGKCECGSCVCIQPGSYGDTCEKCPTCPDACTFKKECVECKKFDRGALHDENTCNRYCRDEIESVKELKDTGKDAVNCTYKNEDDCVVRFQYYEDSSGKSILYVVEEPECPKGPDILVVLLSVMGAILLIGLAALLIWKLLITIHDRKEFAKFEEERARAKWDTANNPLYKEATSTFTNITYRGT
Integrin alpha-V/beta-3, sequence (P06756 31-889 limits assumed): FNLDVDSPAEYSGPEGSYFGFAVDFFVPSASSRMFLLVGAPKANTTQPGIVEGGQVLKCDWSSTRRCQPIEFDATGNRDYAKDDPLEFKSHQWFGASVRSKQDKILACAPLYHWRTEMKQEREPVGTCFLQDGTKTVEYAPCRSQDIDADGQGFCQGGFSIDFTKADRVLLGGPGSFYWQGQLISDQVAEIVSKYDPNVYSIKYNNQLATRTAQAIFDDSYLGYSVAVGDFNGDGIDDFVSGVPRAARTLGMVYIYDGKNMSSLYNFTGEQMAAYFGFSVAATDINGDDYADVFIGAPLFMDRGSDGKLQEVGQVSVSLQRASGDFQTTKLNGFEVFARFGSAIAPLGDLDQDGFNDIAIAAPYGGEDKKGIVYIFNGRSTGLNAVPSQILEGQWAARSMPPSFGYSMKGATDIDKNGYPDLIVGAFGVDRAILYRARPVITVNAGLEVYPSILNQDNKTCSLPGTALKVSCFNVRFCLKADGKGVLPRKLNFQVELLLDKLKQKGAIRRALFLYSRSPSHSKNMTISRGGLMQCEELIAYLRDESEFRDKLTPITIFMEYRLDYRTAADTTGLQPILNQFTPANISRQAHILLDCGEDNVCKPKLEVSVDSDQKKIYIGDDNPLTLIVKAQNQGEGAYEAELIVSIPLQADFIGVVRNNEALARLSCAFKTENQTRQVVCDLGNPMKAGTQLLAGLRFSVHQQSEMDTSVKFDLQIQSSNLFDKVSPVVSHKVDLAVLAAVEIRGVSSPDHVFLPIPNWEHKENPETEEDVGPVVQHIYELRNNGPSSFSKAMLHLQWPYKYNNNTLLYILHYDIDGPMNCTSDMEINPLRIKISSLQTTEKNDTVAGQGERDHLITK
Integrin alpha-V/beta-3, sequence (P06756 891-1048 limits assumed): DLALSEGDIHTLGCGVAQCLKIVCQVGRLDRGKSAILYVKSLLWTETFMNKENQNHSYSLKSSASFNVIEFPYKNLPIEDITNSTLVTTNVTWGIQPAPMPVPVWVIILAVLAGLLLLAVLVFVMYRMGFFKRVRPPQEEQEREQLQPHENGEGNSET

pIC50	Structure (SMILES)
9.49	CC(C)(CNC(=O)OCCOCCOCCOCCOCCOCCOCCOCCOC(=O)NCC(C)(C)COC(=O)NCCS(=O)(=O)N[C@@H](CNC(=O)c1ccc(OCCN=C2NCCCN2)cc1)C(=O)O)COC(=O)NCCS(=O)(=O)N[C@@H](CNC(=O)c1ccc(OCCN=C2NCCCN2)cc1)C(=O)O
7.65	NCCS(=O)(=O)N[C@@H](CNC(=O)c1ccc(OCCNC2=NCCCN2)cc1)C(=O)O
8.68	CC(C)(CN)COC(=O)NCCS(=O)(=O)N[C@@H](CNC(=O)c1ccc(OCCNC2=NCCCN2)cc1)C(=O)O
